Experimental data published in article PMC11073699, “Odorant receptors for floral- and plant-derived volatiles in the yellow fever mosquito, Aedes aegypti (Diptera: Culicidae)” (PLOS ONE, 2024).
Several values for one entry are separate records, joined by “and”; a condition that tells them apart may be missing. Equal values may be shown once.

Tests used:
Assay type in all cases: cell-based
AaegOR13 = target: T1, AaegOR13 (Aedes aegypti, UniProt Q16Z13); assay: Two-electrode voltage clamp of Xenopus laevis oocytes expressing AaegOR13/Orco (blends, unitary compounds, concentration-response); details: unitary compounds
T1 sequence (Q16Z13 1-389): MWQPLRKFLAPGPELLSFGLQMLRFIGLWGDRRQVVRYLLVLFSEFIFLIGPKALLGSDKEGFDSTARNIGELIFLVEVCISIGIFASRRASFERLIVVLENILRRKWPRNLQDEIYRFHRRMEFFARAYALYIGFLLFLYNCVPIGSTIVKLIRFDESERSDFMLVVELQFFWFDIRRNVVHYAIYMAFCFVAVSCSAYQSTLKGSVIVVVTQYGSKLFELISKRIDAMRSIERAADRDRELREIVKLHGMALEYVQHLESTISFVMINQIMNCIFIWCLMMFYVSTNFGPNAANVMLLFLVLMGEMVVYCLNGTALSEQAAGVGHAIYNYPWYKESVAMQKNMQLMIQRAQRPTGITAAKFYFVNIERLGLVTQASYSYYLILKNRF
T1 sequence (Q178U6 1-478 partner): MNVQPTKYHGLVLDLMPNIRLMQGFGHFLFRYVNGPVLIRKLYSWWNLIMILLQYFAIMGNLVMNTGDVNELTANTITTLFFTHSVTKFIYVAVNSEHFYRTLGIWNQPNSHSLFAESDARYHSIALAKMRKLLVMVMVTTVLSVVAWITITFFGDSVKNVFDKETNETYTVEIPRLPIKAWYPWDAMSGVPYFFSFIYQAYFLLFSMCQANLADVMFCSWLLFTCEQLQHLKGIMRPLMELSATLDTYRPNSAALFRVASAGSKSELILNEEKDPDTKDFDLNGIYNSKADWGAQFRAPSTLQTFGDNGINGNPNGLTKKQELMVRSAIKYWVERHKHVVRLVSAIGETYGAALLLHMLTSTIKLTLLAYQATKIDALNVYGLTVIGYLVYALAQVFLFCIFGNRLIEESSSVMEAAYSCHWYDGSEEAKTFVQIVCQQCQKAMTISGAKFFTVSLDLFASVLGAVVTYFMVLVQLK
Description: (§1) The coding regions of ten AaegOR genes of interest (S3 File) and AaegOrco were synthesized by Twist Bioscience (San Francisco, CA, USA) and cloned into the pENTR plasmid. The Gateway LR directional cloning system (Invitrogen Corp., Carlsbad, CA, USA) was utilized to subclone AaegOR coding regions into the pSP64t-RFA oocyte expression plasmid. Plasmids were purified using the GeneJet Plasmid Miniprep Kit (ThermoFisher Scientific, Waltham, MA, USA). Purified plasmids were sequenced in both directions to confirm coding regions.
(§2) Chemical compounds (S6 File) used in the deorphanization of AaegORs were purchased from Acros Organics (Morris, NJ, USA), Alfa Aesar (Ward Hill, MA, USA), and ThermoFisher Scientific (Waltham, MA, USA) at the highest purity available. Compounds were stored as 1M stocks in 100% DMSO. Serial dilutions of each compound were prepared in 10% DMSO and blended by chemical class.
(§3) pSP64t-RFA: AaegOR clones were linearized using Xbal, and cRNAs were synthesized using the mMESSAGE mMACHINE ® SP6 kit (Life Technologies, Carlsbad, CA, USA). Xenopus laevis stage V-VII oocytes purchased from Xenopus1 (Dexter, MI, USA) were stored at 18°C in Incubation medium (ND96 96 with 5% dialyzed horse serum, 50μg/mL gentamycin, 100μg/mL streptomycin, 100μg/mL penicillin, and 550μg/mL sodium pyruvate). 30nL of cRNA was injected into multiple oocytes using a microinjection syringe pump (World Precision Instruments, Sarasota, FL, USA) maintained at 18°C for 48–72 hrs. Odorant blends were perfused across individual oocytes for 10–15 seconds, held at a resting membrane potential of -80 mV using an OC-725C oocyte clamp (Warner Instruments, LLC, Hamden, CT, USA). Induced currents were measured indirectly using the two-electrode voltage clamp technique (TEVC). Following each stimulus, currents were allowed to return to baseline before further stimulation. Data was captured using the Digidata 1550 B digitizer and PClamp10 software (Molecular Devices, San Jose, CA, USA). Concentration-response curves were generated by perfusing unitary odorants over oocytes at increasing concentrations from [10^-3M] to [10^-9M]. Data were analyzed using GraphPad Prism 8 (GraphPad Software Inc., La Jolla, CA, USA). At least two biological replicates were conducted at each concentration and for each compound. Data for at least seven oocytes responding to each compound was analyzed (S7 File).

AaegOR15 = target: T2, AaegOR15 (Aedes aegypti, UniProt A0A6B9QIR2); assay: Two-electrode voltage clamp of Xenopus laevis oocytes expressing AaegOR15/Orco (blends, unitary compounds, concentration-response); details: unitary compounds of Alcohols 2; for Raw data (Responses in nA), compounds of blend Alcohols 2: individual oocytes 1-10 (replicates)
T2 sequence (A0A6B9QIR2 1-390): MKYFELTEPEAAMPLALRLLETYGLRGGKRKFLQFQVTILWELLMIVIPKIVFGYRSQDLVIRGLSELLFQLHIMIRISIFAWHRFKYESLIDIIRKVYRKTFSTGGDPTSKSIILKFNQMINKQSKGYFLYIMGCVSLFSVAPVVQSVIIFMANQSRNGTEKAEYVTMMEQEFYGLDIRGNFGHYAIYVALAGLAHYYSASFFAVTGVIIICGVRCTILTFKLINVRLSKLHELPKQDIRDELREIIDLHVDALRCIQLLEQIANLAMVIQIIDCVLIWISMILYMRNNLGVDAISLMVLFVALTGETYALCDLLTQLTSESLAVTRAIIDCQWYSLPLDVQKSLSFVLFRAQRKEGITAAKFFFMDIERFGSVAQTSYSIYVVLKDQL
T2 sequence (Q178U6 1-478 partner): T1 sequence (Q178U6 1-478 partner)
Description: as §1, §2, §3

AaegOR28 = target: T3, AaegOR28 (Aedes aegypti, UniProt Q0IGE1); assay: Two-electrode voltage clamp of Xenopus laevis oocytes expressing AaegOR28/Orco (blends, unitary compounds, concentration-response); details: AaegOR28, compounds of blend Alcohols 3; for Raw Data (Responses in nA), Alcohols 3 unitary compounds: individual oocytes 1-10; for Normalized response, Average, Alcohols 3 unitary compounds: average of 10 oocytes; for Normalized response, Alcohols 3 unitary compounds: individual oocytes 1-10, normalized to largest response of each oocyte
T3 sequence (Q0IGE1 1-394): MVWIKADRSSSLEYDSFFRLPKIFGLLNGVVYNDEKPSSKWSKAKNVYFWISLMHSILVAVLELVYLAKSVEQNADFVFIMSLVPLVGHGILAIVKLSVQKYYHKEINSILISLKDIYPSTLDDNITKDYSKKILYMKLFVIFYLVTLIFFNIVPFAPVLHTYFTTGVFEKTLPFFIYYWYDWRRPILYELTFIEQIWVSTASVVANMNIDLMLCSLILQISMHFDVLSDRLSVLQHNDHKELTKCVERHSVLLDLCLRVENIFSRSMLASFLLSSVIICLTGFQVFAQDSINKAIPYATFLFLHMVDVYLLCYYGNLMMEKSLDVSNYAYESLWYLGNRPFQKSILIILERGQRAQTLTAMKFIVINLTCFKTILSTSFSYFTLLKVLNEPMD
T3 sequence (Q178U6 1-478 partner): T1 sequence (Q178U6 1-478 partner)
Description: as §1, §2, §3

AaegOR31 = target: T4, AaegOR31 (Aedes aegypti, UniProt Q16JU0); assay: Two-electrode voltage clamp of Xenopus laevis oocytes expressing AaegOR31/Orco (blends, unitary compounds, concentration-response); details: AaegOR31, compounds of blend Alcohols 1
T4 sequence (Q16JU0 1-381): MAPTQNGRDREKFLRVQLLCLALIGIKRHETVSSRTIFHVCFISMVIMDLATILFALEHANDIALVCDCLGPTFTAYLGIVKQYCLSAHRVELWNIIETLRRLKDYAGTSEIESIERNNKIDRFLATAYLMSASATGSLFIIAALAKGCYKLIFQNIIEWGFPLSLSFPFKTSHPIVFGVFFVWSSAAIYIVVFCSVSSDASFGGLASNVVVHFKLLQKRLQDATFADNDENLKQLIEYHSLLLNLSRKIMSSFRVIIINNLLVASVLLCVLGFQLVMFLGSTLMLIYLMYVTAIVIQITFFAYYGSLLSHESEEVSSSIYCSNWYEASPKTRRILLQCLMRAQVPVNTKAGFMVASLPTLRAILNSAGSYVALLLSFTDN
T4 sequence (Q178U6 1-478 partner): T1 sequence (Q178U6 1-478 partner)
Description: as §1, §2, §3

CC(C)C12CCC(C)(CC1)O2 [1,4-Cineole]
Raw data (Responses in nA), unitary compounds of Indoles 1, Alcohols 1, Alcohols 3 (AaegOR13; individual oocytes 1-7): 0.0 nA | Raw data (Responses in nA), compounds of blend Alcohols 2 (AaegOR15): 0.0 nA (6×) and 10.0 nA (4×) | Raw Data (Responses in nA), Alcohols 3 unitary compounds (AaegOR28): 0 nA

C=C[C@](C)(O)CCC=C(C)C [(R)-(-)-linalool]
Normalized response, compounds of blend Alcohols 2, Average (AaegOR15; average of 10 oocytes, 1-hexanol = 100): 2.4 | Raw data (Responses in nA), compounds of blend Alcohols 2 (AaegOR15): 0.0 nA (3×) and 10.0 nA (2×) and 20.0 nA and 25.0 nA and 40.0 nA (2×) and 15.0 nA | Normalized response, compounds of blend Alcohols 2 (AaegOR15; individual oocytes 1-10, normalized to the largest response of each oocyte (1-hexanol = 100)): 0.0 (3×) and 1.4 and 2.6 and 3.7 (2×) and 1.7 and 5.4 and 5.5 | Normalized response, Average, Alcohols 3 unitary compounds (AaegOR28): 25.1 | Raw Data (Responses in nA), Alcohols 3 unitary compounds (AaegOR28): 10 nA (5×) and 5 nA (4×) and 20 nA | Normalized response, Alcohols 3 unitary compounds (AaegOR28): 33.3 and 28.6 and 50.0 and 25.0 and 20.0 and 16.7 and 12.5 and 22.2 (2×) and 20

C=C[C@@](C)(O)CCC=C(C)C [(S)-(+)-linalool]
Normalized response, Average, Alcohols 3 unitary compounds (AaegOR28): 19.1 | Raw Data (Responses in nA), Alcohols 3 unitary compounds (AaegOR28): 10 nA (2×) and 5 nA (5×) and 0 nA and 15 nA (2×) | Normalized response, Alcohols 3 unitary compounds (AaegOR28): 33.3 and 14.3 and 25.0 and 0.0 and 30.0 and 16.7 (2×) and 12.5 and 22.2 and 20

CC(C)=CCC/C(C)=C/CO [Geraniol]
Raw Data (Responses in nA), Alcohols 3 unitary compounds (AaegOR28): 0 nA

C=CC1(C)CCC(C(C)(C)O)O1 (stereo not drawn) [Linalool Oxide]
Raw data (Responses in nA), compounds of blend Alcohols 2 (AaegOR15): 0.0 nA (6×) and 10.0 nA (2×) and 5.0 nA (2×) | Raw Data (Responses in nA), Alcohols 3 unitary compounds (AaegOR28): 0 nA

CCO [ethanol]
Normalized response, unitary compounds, Average (AaegOR13; average of oocytes 1-7): 0.0 | Raw data (Responses in nA), unitary compounds of Indoles 1, Alcohols 1, Alcohols 3 (AaegOR13; individual oocytes 1-7): 0.0 nA | Normalized response, unitary compounds of Indoles 1, Alcohols 1, Alcohols 3 (AaegOR13; normalized per oocyte, individual oocytes 1-7): 0.0 | Normalized response, Average, Alcohols 1 unitary compounds (AaegOR31; average of 8 oocytes): 0.0 | Raw Data (Responses in nA), Alcohols 1 unitary compounds (AaegOR31; individual oocytes (Oocyte 1-8)): 0.0 nA | Normalized response, Alcohols 1 unitary compounds (AaegOR31; individual oocytes (Oocyte 1-8), normalized to the strongest compound per oocyte): 0.0
